# According to US20030216334A1, “Methods for inhibiting/treating hiv infections and aids related symptoms” (priority 2003, published 2003):
# Assays:
# in vitro [1] = experiment: in vitro
# Protocol: (§1) Effect on Drug-Resistant Mutants. […] Viral cytopathogencity was determined by Serquest Inc., a Division of Southern Research Institute, Gaithersburg Md. using the tetrazolium-based calorimetric assay, and the data were analyzed using a program developed by the Southern Research Institute. A number of viruses were used in these studies, which include some that are resistant to both the NNRTIs and NRTIs.
# NL4-3 (wild type) = experiment: Viral cytopathogenicity, tetrazolium-based colorimetric assay, NL4-3; conditions: Human immunodeficiency virus 1, NL43
# Protocol: as §1
# 4XAZT = experiment: microbe, parasite or virus in culture; conditions: Human immunodeficiency virus 1
# Protocol: as §1
# HIV IIIB (wild type) = experiment: Viral cytopathogenicity, tetrazolium-based colorimetric assay, IIIB; type: cell-based
# Protocol: as §1
# DPS-R (Y181C) = experiment: microbe, parasite or virus in culture; type: cell-based, HIV; conditions: Human immunodeficiency virus 1
# Protocol: as §1
# L100I = experiment: microbe, parasite or virus in culture; type: cell-based, HIV; conditions: Human immunodeficiency virus 1, virus L100I
# Protocol: as §1
# Y181C = experiment: microbe, parasite or virus in culture; type: cell-based, HIV; conditions: Human immunodeficiency virus 1
# Protocol: as §1
# [2] = system: HIV-1 attachment and entry into target cells; experiment: microbe, parasite or virus in culture
# Source text: (§2) 2) Inhibition of HIV-1 attachment and entry into target cells.
# [3] = system: HeLa CD4 LTR β-gal and HL2/3 cells; experiment: Cell-to-cell fusion assay in the absence of virus
# Source text: as §2
# gp120 binding to CD4 = gp120 binding to CD4 (UniProt P01730+P04578); experiment: gp120/CD4 binding, cell-associated viral p24 antigen read-out
# Source text: as §2
# in vitro [4] = experiment: in vitro; remark: listed apart in the source
# Protocol: as §1
# K103N = experiment: microbe, parasite or virus in culture; type: cell-based, HIV; conditions: Human immunodeficiency virus 1, virus K103N
# Protocol: as §1
# [5] = Human immunodeficiency virus 1, IIIB
SMILES,CC50 (in vitro [1]) [nM],IC50 (NL4-3 (wild type)) [nM],IC50 (4XAZT) [nM],IC50 (HIV IIIB (wild type); [5]) [nM],IC50 (HIV IIIB (wild type); virus IIIB) [nM],IC50 (DPS-R (Y181C)) [nM],IC50 (L100I) [nM],IC50 (Y181C) [nM],TC50 ([2]; Attachment) [µg/mL],"IC50 ([2]; Human immunodeficiency virus 1, HeLa) [µg/mL]",IC50 [3] [µg/mL],TC50 ([3]; Fusion) [µg/mL],TI (gp120 binding to CD4; gp120/CD4 Binding),"CC50 (gp120 binding to CD4; human, HIV-1 infected HeLa CD4 LTR β-gal cells) [µg/mL]",CC50 (in vitro [4]) [nM],IC50 (K103N) [nM]
"Cc1cn([C@H]2C[C@H](N=[N+]=[N-])[C@@H](CO)O2)c(=O)[nH]c1=O [AZT, zidovudine]",1000,60,≥ 1000,3,3.2,20,3,10,,,,,,,,
"COc1cc(-c2ccc(/N=N/c3ccc4c(S(=O)(=O)O)cc(S(=O)(=O)O)c(N)c4c3O)c(OC)c2)ccc1/N=N/c1ccc2c(S(=O)(=O)O)cc(S(=O)(=O)O)c(N)c2c1O [CSB, Chicago Sky Blue]",,,,,,,,,>10,1.19,0.67,>10,8.3,> 10,,
"Cc1ccnc2c1NC(=O)c1cccnc1N2C1CC1 [Nevirapine, nevirapine]",10000,60,50,30,,≥ 10000,150,1030,,,,,,,1000,3200
